Reference: patent US10793577B2, “Fused bicyclic compounds for the treatment of disease” (AKARNA THERAPEUTICS, LTD., priority 2014, dated 2020)

Target: T1, FXR (Homo sapiens, UniProt Q96RI1)
T1 construct: expressed in transfected cells
T1 sequence (Q96RI1 1-486): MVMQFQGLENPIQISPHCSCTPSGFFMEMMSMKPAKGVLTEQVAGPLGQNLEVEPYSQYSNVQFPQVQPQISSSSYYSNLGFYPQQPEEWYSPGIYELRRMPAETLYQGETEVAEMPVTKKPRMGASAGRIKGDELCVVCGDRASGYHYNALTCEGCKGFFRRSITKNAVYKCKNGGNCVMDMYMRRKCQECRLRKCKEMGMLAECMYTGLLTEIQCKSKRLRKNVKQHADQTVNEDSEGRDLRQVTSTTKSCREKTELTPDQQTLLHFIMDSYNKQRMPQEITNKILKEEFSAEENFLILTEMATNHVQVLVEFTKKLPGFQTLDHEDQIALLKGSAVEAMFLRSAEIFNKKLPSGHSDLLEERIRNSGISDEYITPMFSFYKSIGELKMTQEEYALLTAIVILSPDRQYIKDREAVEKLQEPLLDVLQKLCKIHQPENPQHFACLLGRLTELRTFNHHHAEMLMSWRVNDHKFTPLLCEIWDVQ
Assay: FXR agonist transactivation assay (luciferase reporter)
Assay type: cell-based
Details: transiently transfected cells, 18 h stimulation with test compound, luciferase normalized to Renilla
Procedure: Example 21: FXR Agonist Transactivation Assay
For the transactivation assay, cells were transiently transfected with 100 ng of reporter vector and 10 ng of expression plasmid. Forty nanograms of pGL4.74 was used as internal control for transfection efficiency. The pGEM vector was added to normalize the amounts of DNA transfected in each assay (2 μg). All transfections were performed using FuGENE HD (Roche, Mannheim, Germany) according to the manufacturer's protocol. Twenty-four hours after transfection, cells were stimulated with increasing concentrations of the test compounds for further 18 h. Control cultures receive vehicle (0.1% DMSO) alone. Luciferase values were normalized with Renilla reniformis luciferase units, for transfection efficiency.

EC50	Molecule
1000 to 10000 nM	CC(C)OC(=O)C1=CN(C(=O)c2ccc(Cl)c(Cl)c2)CC(C)(C)c2c1[nH]c1ncc(Cl)cc21 [Compound 9, Propan-2-yl 4-chloro-12-(3,4-dichlorobenzoyl)-14,14-dimethyl-6,8,12-triazatricyclo[7.5.0.02,7]tetradeca-1(9),2,4,6,10-pentaene-10-carboxylate]
< 1000 nM	CC(C)OC(=O)C1=CN(C(=O)c2ccc(F)c(F)c2)CC(C)(C)c2c1[nH]c1ncc(Cl)cc21 [Compound 10, propan-2-yl 4-chloro-12-(3,4-difluorobenzoyl)-14,14-dimethyl-6,8,12-triazatricyclo[7.5.0.02,7]tetradeca-1(9),2,4,6,10-pentaene-10-carboxylate]
1000 to 10000 nM	CC(C)OC(=O)C1=CN(C(=O)c2ccc(F)cc2)CC(C)(C)c2c1[nH]c1ncc(Cl)cc21 [Compound 11, propan-2-yl 4-chloro-12-(4-fluorobenzoyl)-14,14-dimethyl-6,8,12-triazatricyclo[7.5.0.02,7]tetradeca-1(9),2,4,6,10-pentaene-10-carboxylate]
< 1000 nM	CC(C)OC(=O)C1=CN(C(=O)c2ccc(F)c(F)c2)CC(C)(C)c2c1[nH]c1cc(Cl)cnc21 [Compound 22, Propan-2-yl 5-chloro-12-(3,4-difluorobenzoyl)-14,14-dimethyl-3,8,12-triazatricyclo[7.5.0.02,7]tetradeca-1(9),2,4,6,10-pentaene-10-carboxylate]
< 1000 nM	CC(C)OC(=O)C1=CN(C(=O)c2ccc(F)c(F)c2)CC(C)(C)c2c1[nH]c1cc(F)cnc21 [Compound 33]
< 1000 nM	COc1ccc2[nH]c3c(c2n1)C(C)(C)CN(C(=O)c1ccc(F)c(F)c1)C=C3C(=O)OC(C)C [Compound 42, Propan-2-yl 12-(3,4-difluorobenzoyl)-14,14-dimethyl-4-methoxy-3,8,12-triazatricyclo[7.5.0.02,7]tetradeca-1(9),2,4,6,10-pentaene-10-carboxylate]
< 1000 nM	COc1ccc2[nH]c3c(c2n1)C(C)(C)CN(C(=O)c1ccc(F)cc1)C=C3C(=O)OC(C)C [Compound 43, propan-2-yl 12-(4-fluorobenzoyl)-14,14-dimethyl-4-methoxy-3,8,12-triazatricyclo[7.5.0.02,7]tetradeca-1(9),2,4,6,10-pentaene-10-carboxylate]
< 1000 nM	CC(C)OC(=O)C1=CN(C(=O)c2ccc(F)c(F)c2)CC(C)(C)c2c1[nH]c1cccnc21 [Compound 55, Propan-2-yl 12-(3,4-difluorobenzoyl)-14,14-dimethyl-3,8,12-triazatricyclo[7.5.0.02,7]tetradeca-1(9),2,4,6,10-pentaene-10-carboxylate]
< 1000 nM	CCOC(=O)C1=CN(C(=O)c2ccc(F)c(F)c2)CC(C)(C)c2c1[nH]c1cccnc21 [Compound 56, eth-2-yl 12-(3,4-difluorobenzoyl)-14,14-dimethyl-3,8,12-triazatricyclo[7.5.0.02,7]tetradeca-1(9),2,4,6,10-pentaene-10-carboxylate]
< 1000 nM	CC(C)OC(=O)C1=CN(C(=O)c2ccc(F)c(F)c2)CC(C)(C)c2c1[nH]c1ncccc21 [Compound 57, propan-2-yl 12-(3,4-difluorobenzoyl)-14,14-dimethyl-6,8,12-triazatricyclo[7.5.0.02,7]tetradeca-1(9),2,4,6,10-pentaene-10-carboxylate]
< 1000 nM	CCOC(=O)C1=CN(C(=O)c2ccc(F)c(F)c2)CC(C)(C)c2c1[nH]c1ncccc21 [Compound 58, eth-2-yl 12-(3,4-difluorobenzoyl)-14,14-dimethyl-6,8,12-triazatricyclo[7.5.0.02,7]tetradeca-1(9),2,4,6,10-pentaene-10-carboxylate]
< 1000 nM	CC(C)OC(=O)C1=CN(C(=O)c2ccc(F)c(F)c2)CC(C)(C)c2c1[nH]c1ncc(F)cc21 [Compound 59, propan-2-yl 4-fluoro-12-(3,4-difluorobenzoyl)-14,14-dimethyl-6,8,12-triazatricyclo[7.5.0.02,7]tetradeca-1(9),2,4,6,10-pentaene-10-carboxylate]
1000 to 10000 nM	CC(C)OC(=O)C1=CN(C(=O)c2ccc(F)c(F)c2)CC(C)(C)c2c1[nH]c1cc(OCCO)c(Cl)nc21 [Compound 72, Propan-2-yl 12-(3,4-difluorobenzoyl)-14,14-dimethyl-5-(2-hydroxyethoxy)-4-chloro-3,8,12-triazatricyclo[7.5.0.02,7]tetradeca-1(9),2,4,6,10-pentaene-10-carboxylate]
< 1000 nM	CC(C)OC(=O)C1=CN(C(=O)c2ccc(F)c(F)c2)CC(C)(C)c2c1[nH]c1ccc(OCCO)nc21 [Compound 84, Propan-2-yl 12-(3,4-difluorobenzoyl)-14,14-dimethyl-4-(2-hydroxyethoxy)-3,8,12-triazatricyclo[7.5.0.02,7]tetradeca-1(9),2,4,6,10-pentaene-10-carboxylate]
< 1000 nM	CC(C)NC(=O)C1=CN(C(=O)c2ccc(F)c(F)c2)CC(C)(C)c2c1[nH]c1cc(Cl)cnc21 [Compound 85, 3-chloro-8-(3,4-difluorobenzoyl)-N-isopropyl-10,10-dimethyl-5,8,9,10-tetrahydropyrido[2′,3′:4,5]pyrrolo[2,3-d]azepine-6-carboxamide]
< 1000 nM	COc1ccc2[nH]c3c(c2n1)C(C)(C)CN(C(=O)c1ccc(OCCN2CCOCC2)cc1)C=C3C(=O)OC(C)C [Compound 91, propan-2-yl 12-(4-(2-morpholinoethoxy)benzoyl)-14,14-dimethyl-4-(methoxy)-3,8,12-triazatricyclo[7.5.0.02,7]tetradeca-1(9),2,4,6,10-pentaene-10-carboxylate]
< 1000 nM	COc1nc2c3c([nH]c2cc1Cl)C(C(=O)OC(C)C)=CN(C(=O)c1ccc(F)c(F)c1)CC3(C)C [Compound 101, propan-2-yl 5-chloro-4-methoxy-12-(3,4-difluorobenzoyl)-14,14-dimethyl-3,8,12-triazatricyclo[7.5.0.02,7]tetradeca-1(9),2,4,6,10-pentaene-10-carboxylate]
< 1000 nM	propan-2-yl 4-chloro-12-(4-(2-morpholinoethoxy)benzoyl)-14,14-dimethyl-6,8,12-triazatricyclo[7.5.0.02,7]tetradeca-1(9),2,4,6,10-pentaene-10-carboxylate [Compound 89]
